Earlier results in patent US6829374B2, “Methods for measuring iris color over time” (Glaucoma Research, Inc., priority 2001, dated 2004).

System: iris color
Settings: ocular medication, recent studies

| Compound | change in iris color |
| --- | --- |
| CCCCCCCC(=O)CC[C@@H]1[C@@H](C/C=C\CCCC(=O)O)[C@@H](O)C[C@H]1O [unoprostone] | change in iris color |
| CC(C)OC(=O)CCC/C=C\C[C@@H]1[C@@H](CC[C@@H](O)CCc2ccccc2)[C@H](O)C[C@@H]1O [latanoprost] | change in iris color |
